Assay results: US20170166555A1, “FUNCTIONALISED AND SUBSTITUTED INDOLES AS ANTI-CANCER AGENTS” (Novogen Limited, priority 2013, published 2017)

Columns and labels:
[1] = tested on: melanoma (SK-Mel-28) cells; assay: Cell viability assay (MTT, 48 hr); format: cell-based; details: Homo sapiens, 48 hr treatment, read-out: IC50 (μM) SKMEL28
Method: (§1) Cell viability assays were also conducted to assess the anti-proliferative effects of the anti-tropomyosin compounds 4001-4015. Briefly, cells (1×10^3/well) were plated (96-well) and treated (48 hr) with anti-tropomyosin drug and viability measured using 3-(4,5-dimethylthiazol-2-yl)-2,5-diphenylterazolium bromide MTT. Cell viability was normalized to control (vehicle alone) and dose-response curves, and half maximal effective concentration (EC50) values were determined using Graph Pad Prism 5 (nonlinear regression sigmoidal dose-response variable slope).

[2] = tested on: neuroblastoma (SH-EP) cells; assay: Cell viability assay (MTT, 48 hr); format: cell-based; details: 48 hr treatment, read-out: IC50 (μM) SHEP
Method: as §1

[3] = tested on: non-transfected and Tm5NM1 stably transfected MEFs; assay: MTT viability in non-transfected versus Tm5NM1 stably transfected MEFs; format: cell-based, mouse; details: 48 hr, FIG. 1
Method: FIG. 1: Activity of selected compounds against Tm5NM1/2 transfected mouse embryonic fibroblasts versus non-transfected MEFs.
Compounds 4001, 4010, 4014, 4008 and 4015 were then screened against non-transfected and Tm5NM1 stably transfected MEFs. Briefly, MEFs were transfected with pEYFP-C1/Tm5NM1 constructs using the Amaxa nucleofector apparatus (program A-023) and MEF nucleofector kit 1 (Lonza) according to the manufacturer's instructions. Cell viability assays were also conducted to assess the anti-proliferative effects of the anti-tropomyosin compounds. Briefly, cells (1×10^3/well) were plated (96-well) and treated (48 hr) with anti-tropomyosin compounds and viability measured using 3-(4,5-dimethylthiazol-2-yl)-2, 5-diphenylterazolium bromide MTT. Cell viability was normalized to control (vehicle alone) and dose-response curves, and half maximal effective concentration (EC50) values were determined using Graph Pad Prism 5 (nonlinear regression sigmoidal dose-response variable slope).

[4] = Tolerance in the A375 xenograft study (body weight, clinical observations); format: in vivo; details: hydrochloride salt, 20 mg/kg intravenously QD, 15 days
Method: FIG. 5: Average body weight measurement ±SEM (grams) of animals in Control (Carbonate vehicle) and compound 4015 (20 mg/kg, I.V., QD) treated animals.
In vivo efficacy studies for compound 4015 hydrochloride salt were conducted using an A375 melanoma xenograft model in Foxn-1 nu/nu athymic mice. The human melanoma cell line A375 (sourced from American Type Culture Collection (ATCC), USA) was used for developing the flank xenograft model. Briefly, five million cells were injected subcutaneously in the right flank region of the animal. When the tumors reached 130-150 mm^3 the animals were randomized into two groups, each group with 8 animals in them, so that the average tumor volume of all the groups was same.
First group received vehicle (sodium bicarbonate buffer) intravenously once a day (QD). The second group received compound 4015 at 20 mg/kg, intravenously (QD) (Table 7). The volume of dosing to each animal was calculated and adjusted every day based on individual body weight measured prior to dosing.
Animals were treated from the day of randomization (Day 1) for 15 days. Body weight and tumor dimensions (length and diameter) were measured three times in a week including the termination day of the study. Throughout the study period, mice were monitored daily for clinical condition.

[5] = tested on: ovarian cancer (SKOV3) cells; assay: Cell viability, CellTiter 96 AQueous, 72 hours; format: cell-based; details: Homo sapiens, SK-OV-3
Method: The anti-proliferative activity of compound 4093 against ovarian cancer (SKOV3) and glioblastoma (U251) cells was also evaluated (Table 6). Briefly, cells were seeded at 2000 cells/well in a 96 well plate. 24 hrs post plating, each cell line was exposed to various concentrations of ATM-4093 (10, 5, 3,1, 0.7, 0.5, 0.3, 0.1 μM) for 72 hours. Cell viability was determined using CellTiter 96 AQueous (Promega) and absorbance measured at 490 nm on the SpectraMax M2 plate reader. Cell viability was normalized to control (vehicle alone) and dose-response curves, and half maximal effective concentration (EC50) values were determined using Graph Pad Prism 6 (nonlinear regression sigmoidal dose-response variable slope).

[6] = tested on: total actin cytoskeleton in SK-N-SH neuroblastoma cells; assay: Microfilament disruption assay, 488-Atto-Phallodin imaging and filament quantitation; format: cell-based; details: 0-40 μM, 24 h, FIG. 2
Method: (§2) FIG. 2: Imaging and quantitation of actin filaments in SK—N—SH neuroblastoma cells treated with compound (A) 4093 and (B) 4113. Cells were stained with 488-Atto-Phallodin and DAPI to visualize the actin filament bundles and the nucleus, respectively. Shown in the top panel is a representative grey scale immunofluorescent image from control (vehicle alone), 5 μM and 10 μM treated cells. […] The coloured lines indicate the detected actin filaments. Also shown is the quantitation of cell number, filament number/cell and filament number/cell area ([…]). […]
(§3) The ability of compounds 4093 and 4113 to disrupt the total actin cytoskeleton (FIG. 2) and to specifically target Tm5NM1-containing actin filaments (FIG. 3) was assessed in vitro using the microfilament disruption assay.
(§4) Briefly, SK-N-SH neuroblastoma cells were seeded at 1800 cells/well in a 384 Perkin Elmer High Content Imaging “View” plate and left to plate down 24 h prior to treatment. […] Images were then exported and changes in the organization and numbers of actin filaments within the cell were quantitated using a linear feature detection algorithm developed by the CSIRO. […] It is these “ridge lines” that correspond to actin filament bundles and allow us to quantitate the number of filaments per cell.

[7] = tested on: Tm5NM1-containing actin filaments in SK-N-SH neuroblastoma cells; assay: Microfilament disruption assay, γ9d staining imaging and filament quantitation; format: cell-based; details: 0-40 μM, 24 h, FIG. 3
Method: as §2, with “FIG. 3:” for “FIG. 2:”, “with γ9d (sheep polycolonal, 1:100) followed by 488-conjugated secondary (1:1000)” for “with 488-Atto-Phallodin”, “the Tm5NM1 containing” for “the actin”
as §3, §4

Row | SMILES | IC50 [1] | IC50 [2] | Selectivity: toxicity against primary MEFs versus MEFs stably transfected with Tm5NM1/2 [3] | Tolerability (body weight and clinical observations) [4] | IC50 [5] | Disruption of the total actin cytoskeleton [6] | Disruption of Tm5NM1-containing actin filaments [7]
1 | Cc1c(C)n(CCCN(C)C)c2ccc(CN3CCN(CCc4ccccc4)CC3)cc12 [Compound 4015, 3-(2,3-dimethyl-5-((4-phenethylpiperazin-1-yl)methyl)-1H-indol-1-yl)-N,N-dimethylpropan-1-amine] | 6.4 µM | 4.6 µM | less toxicity noted against primary mouse embryonic fibroblasts (MEFs) compared with MEFs stably transfected with Tm5NM1/2 | well tolerated |  |  | 
2 | Cc1c(C)n(CCCN(C)C)c2ccc(Oc3ccc(C(=O)Nc4ccc(F)cc4)cc3)cc12 [Compound 4093, 4-((1-(3-(dimethylamino)propyl)-2,3-dimethyl-1H-indol-5-yl)oxy)-N-(4-fluorophenyl)benzamide] |  |  |  |  | 0.6 µM | disrupt both the total actin cytoskeleton and Tm5NM1-containing actin filaments in a dose-dependent manner | disrupt both the total actin cytoskeleton and Tm5NM1-containing actin filaments in a dose-dependent manner
